# What was measured:
# Japanese bulrush = experiment: Test Example 1: herbicidal activity, application before weed generation under submerged conditions (Table 16, symbol B); format: in vivo, Japanese bulrush (Schoenoplectus juncoides)
# Outline: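 Submerged Wagner pots (alluvial soil, 4 cm water) sown with weed seeds and planted with 2.5-leaf rice seedlings; emulsifiable concentrate diluted in water applied to water surface on sowing day. Held in greenhouse at 25-30 °C; injury scored 0-5 by herbicidal rate after three weeks.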
# wild oat = experiment: Test Example 5: herbicidal effect by foliage application, plastic box (Table 20, symbol I); format: in vivo, wild oat (Avena fatua); conditions: foliage application, three weeks after application
# Outline: (§1)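 Plants sown in sterilized diluvial soil and grown 14 days in a greenhouse at 25° C to 30° C, then sprayed on the foliage with the compound's emulsion diluted in water to a predetermined herbicide amount. Injury to weeds and crops scored three weeks after application on a visual rating scale.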
# velvetleaf = experiment: Test Example 4: herbicidal effect by soil treatment (Table 19, symbol M); format: in vivo, velvetleaf (Abutilon theophrasti)
# Outline: (§2)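 Seeds were sown in sterilized diluvial soil and covered with about 1.5 cm of soil. An emulsion formulation diluted with water to a predetermined herbicide amount was sprayed evenly onto the soil surface. Plants grew in a greenhouse at 25° C. to 30° C., and the effect was scored three weeks after application using criteria from an earlier test.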
# green foxtail = experiment: Test Example 4: herbicidal effect by soil treatment (Table 19, symbol G); format: in vivo, green foxtail (Setaria viridis)
# Outline: as §2
# late watergrass = experiment: Test Example 2: herbicidal activity, application during weed generation under submerged conditions (Table 17, symbol A); format: in vivo, late watergrass (Echinochloa oryzicola); conditions: application during weed generation, submerged conditions
# Outline: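 Alluvial soil in Wagner pots was flooded to 4 cm depth and sown with the three weeds together; pots were kept in a greenhouse at 25° C. to 30° C. At the one to two leaf stage, an emulsion formulation diluted in water to a set rate went onto the water surface; scored three weeks later.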
# redroot pigweed = experiment: Test Example 4: herbicidal effect by soil treatment (Table 19, symbol N); format: in vivo, redroot pigweed (Amaranthus retroflexus)
# Outline: as §2
# barnyard grass [1] = experiment: Test Example 4: herbicidal effect by soil treatment (Table 19, symbol H); format: in vivo, barnyard grass (Echinochloa crus-galli)
# Outline: as §2
# windgrass = experiment: Test Example 5: herbicidal effect by foliage application, plastic box (Table 20, symbol L); format: in vivo, windgrass (Apera spica-venti); conditions: foliage application, three weeks after application
# Outline: as §1
# Chinese sprangletop = experiment: Test Example 3: herbicidal effect by foliage application, Wagner pot (Table 18, symbol D); format: in vivo, chinese sprangletop (Leptochloa chinensis)
# Outline: (§3)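 Plants were sown in alluvial soil held under 0.1–0.5 cm standing water and grown 14 days in a greenhouse at 25–30 °C. An emulsifiable formulation, water-diluted to the set dose, was then sprayed onto the foliage, and effects were scored three weeks later using previously defined criteria.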
# blackgrass [2] = experiment: Test Example 5: herbicidal effect by foliage application, plastic box (Table 20, symbol J); format: in vivo, blackgrass (Alopecurus myosuroides); conditions: foliage application, three weeks after application
# Outline: as §1
# lambsquarters [3] = experiment: Test Example 5: herbicidal effect by foliage application, plastic box (Table 20, symbol O); format: in vivo, lambsquarters (Chenopodium album); conditions: foliage application, three weeks after application
# Outline: as §1
# blackgrass [4] = experiment: Test Example 4: herbicidal effect by soil treatment (Table 19, symbol J); format: in vivo, blackgrass (Alopecurus myosuroides)
# Outline: as §2
# chickweed = experiment: Test Example 4: herbicidal effect by soil treatment (Table 19, symbol P); format: in vivo, common chickweed (Stellaria media)
# Outline: as §2
# barnyard grass [5] = experiment: Test Example 3: herbicidal effect by foliage application, Wagner pot (Table 18, symbol H); format: in vivo, barnyard grass (Echinochloa crus-galli)
# Outline: as §3
# lambsquarters [6] = experiment: Test Example 4: herbicidal effect by soil treatment (Table 19, symbol O); format: in vivo, lambsquarters (Chenopodium album)
# Outline: as §2
# southern crabgrass = experiment: Test Example 4: herbicidal effect by soil treatment (Table 19, symbol F); format: in vivo, southern crabgrass (Digitaria ciliaris)
# Outline: as §2
# Italian ryegrass = experiment: Test Example 5: herbicidal effect by foliage application, plastic box (Table 20, symbol K); format: in vivo, Italian ryegrass (Lolium multiflorum); conditions: foliage application, three weeks after application
# Outline: as §1
# [7] = amount of applied herbicide 274 g/ha
# [8] = amount of applied herbicide 80 g/ha
# [9] = amount of applied herbicide 246 g/ha
# [10] = amount of applied herbicide 320 g/ha
smiles,measurement,setting,value
COc1ccccc1-c1sc2cc(C)ccc2c1-c1c(O)c(C)nn(C)c1=O [3-049],"Herbicidal effect, B: Japanese bulrush",Japanese bulrush; [7],3 (Herbicidal rate of 40% or more and less than 70%)
same,"I: wild oat, herbicidal effect grade",wild oat; 274 g/ha,5 (Herbicidal rate of 90% or more (almost completely withered))
same,"M: velvetleaf, herbicidal effect grade",velvetleaf; [7],0 (Herbicidal rate of 5% or less (almost no effect))
same,"G: green foxtail, herbicidal effect grade",green foxtail; [7],3 (Herbicidal rate of 40% or more and less than 70%)
same,"herbicidal effect rating, A: late watergrass",late watergrass; AAH 274 g/ha,4 (Herbicidal rate of 70% or more and less than 90%)
same,"N: redroot pigweed, herbicidal effect grade",redroot pigweed; [7],4 (Herbicidal rate of 70% or more and less than 90%)
same,"H: barnyard grass, herbicidal effect grade",barnyard grass [1]; [7],3 (Herbicidal rate of 40% or more and less than 70%)
same,"L: windgrass, herbicidal effect grade",windgrass; 274 g/ha,5 (Herbicidal rate of 90% or more (almost completely withered))
same,herbicidal effect on Chinese sprangletop (D),Chinese sprangletop; 274 g/ha,5 (Herbicidal rate of 90% or more (almost completely withered))
same,"J: blackgrass, herbicidal effect grade",blackgrass [2]; 274 g/ha,5 (Herbicidal rate of 90% or more (almost completely withered))
same,"O: lambsquarters, herbicidal effect grade",lambsquarters [3]; 274 g/ha,4 (Herbicidal rate of 70% or more and less than 90%)
same,"J: blackgrass, herbicidal effect grade",blackgrass [4]; [7],3 (Herbicidal rate of 40% or more and less than 70%)
same,"P: chickweed, herbicidal effect grade",chickweed; [7],4 (Herbicidal rate of 70% or more and less than 90%)
same,herbicidal effect on barnyard grass (H),barnyard grass [5]; 274 g/ha,5 (Herbicidal rate of 90% or more (almost completely withered))
same,"O: lambsquarters, herbicidal effect grade",lambsquarters [6]; [7],4 (Herbicidal rate of 70% or more and less than 90%)
same,"F: southern crabgrass, herbicidal effect grade",southern crabgrass; [7],3 (Herbicidal rate of 40% or more and less than 70%)
same,"K: Italian ryegrass, herbicidal effect grade",Italian ryegrass; 274 g/ha,5 (Herbicidal rate of 90% or more (almost completely withered))
CCOc1ccccc1-c1sc2cc(OC)ccc2c1-c1c(O)c(C)nn(C)c1=O [3-070],"Herbicidal effect, B: Japanese bulrush",Japanese bulrush; [8],5 (Herbicidal rate of 90% or more (almost completely withered))
same,"I: wild oat, herbicidal effect grade",wild oat; 80 g/ha,5 (Herbicidal rate of 90% or more (almost completely withered))
same,"M: velvetleaf, herbicidal effect grade",velvetleaf; [8],0 (Herbicidal rate of 5% or less (almost no effect))
same,"G: green foxtail, herbicidal effect grade",green foxtail; [8],3 (Herbicidal rate of 40% or more and less than 70%)
same,"herbicidal effect rating, A: late watergrass",late watergrass; AAH 80 g/ha,3 (Herbicidal rate of 40% or more and less than 70%)
same,"N: redroot pigweed, herbicidal effect grade",redroot pigweed; [8],0 (Herbicidal rate of 5% or less (almost no effect))
same,"H: barnyard grass, herbicidal effect grade",barnyard grass [1]; [8],0 (Herbicidal rate of 5% or less (almost no effect))
same,"L: windgrass, herbicidal effect grade",windgrass; 80 g/ha,5 (Herbicidal rate of 90% or more (almost completely withered))
same,herbicidal effect on Chinese sprangletop (D),Chinese sprangletop; 80 g/ha,5 (Herbicidal rate of 90% or more (almost completely withered))
same,"J: blackgrass, herbicidal effect grade",blackgrass [2]; 80 g/ha,5 (Herbicidal rate of 90% or more (almost completely withered))
same,"O: lambsquarters, herbicidal effect grade",lambsquarters [3]; 80 g/ha,5 (Herbicidal rate of 90% or more (almost completely withered))
same,"J: blackgrass, herbicidal effect grade",blackgrass [4]; [8],0 (Herbicidal rate of 5% or less (almost no effect))
same,"P: chickweed, herbicidal effect grade",chickweed; [8],4 (Herbicidal rate of 70% or more and less than 90%)
same,herbicidal effect on barnyard grass (H),barnyard grass [5]; 80 g/ha,5 (Herbicidal rate of 90% or more (almost completely withered))
same,"O: lambsquarters, herbicidal effect grade",lambsquarters [6]; [8],0 (Herbicidal rate of 5% or less (almost no effect))
same,"F: southern crabgrass, herbicidal effect grade",southern crabgrass; [8],4 (Herbicidal rate of 70% or more and less than 90%)
same,"K: Italian ryegrass, herbicidal effect grade",Italian ryegrass; 80 g/ha,4 (Herbicidal rate of 70% or more and less than 90%)
CCCC(=O)Oc1c(C)nn(C)c(=O)c1-c1c(-c2ccc(F)cc2OCC)oc2ccc(C)cc12 [9-010],"Herbicidal effect, B: Japanese bulrush",Japanese bulrush; [9],3 (Herbicidal rate of 40% or more and less than 70%)
same,herbicidal effect on wild oat (I),wild oat; 246 g/ha,1 (Herbicidal rate of 5% or more and less than 20%)
same,"M: velvetleaf, herbicidal effect grade",velvetleaf; [9],0 (Herbicidal rate of 5% or less (almost no effect))
same,"G: green foxtail, herbicidal effect grade",green foxtail; [9],3 (Herbicidal rate of 40% or more and less than 70%)
same,"herbicidal effect rating, A: late watergrass",late watergrass; AAH 246 g/ha,0 (Herbicidal rate of 5% or less (almost no effect))
same,"N: redroot pigweed, herbicidal effect grade",redroot pigweed; [9],0 (Herbicidal rate of 5% or less (almost no effect))
same,"H: barnyard grass, herbicidal effect grade",barnyard grass [1]; [9],0 (Herbicidal rate of 5% or less (almost no effect))
same,herbicidal effect on windgrass (L),windgrass; 246 g/ha,0 (Herbicidal rate of 5% or less (almost no effect))
same,"Herbicidal effect on D (Chinese sprangletop), foliage application",Chinese sprangletop; [9],5 (Herbicidal rate of 90% or more (almost completely withered))
same,herbicidal effect on blackgrass (J),blackgrass [2]; 246 g/ha,0 (Herbicidal rate of 5% or less (almost no effect))
same,herbicidal effect on lambsquarters (O),lambsquarters [3]; 246 g/ha,3 (Herbicidal rate of 40% or more and less than 70%)
same,"J: blackgrass, herbicidal effect grade",blackgrass [4]; [9],0 (Herbicidal rate of 5% or less (almost no effect))
same,"P: chickweed, herbicidal effect grade",chickweed; [9],0 (Herbicidal rate of 5% or less (almost no effect))
same,"Herbicidal effect on H (barnyard grass), foliage application",barnyard grass [5]; [9],4 (Herbicidal rate of 70% or more and less than 90%)
same,"O: lambsquarters, herbicidal effect grade",lambsquarters [6]; [9],0 (Herbicidal rate of 5% or less (almost no effect))
same,"F: southern crabgrass, herbicidal effect grade",southern crabgrass; [9],0 (Herbicidal rate of 5% or less (almost no effect))
same,herbicidal effect on Italian ryegrass (K),Italian ryegrass; 246 g/ha,0 (Herbicidal rate of 5% or less (almost no effect))
"Cc1nn(C)c(=O)c(-c2c(-c3ccc(C#N)cc3)sc3ccccc23)c1O [Compound No. 1-045, 5-hydroxy-2,6-dimethyl-4-(2-(4-cyanophenyl)benzo[b]thiophen-3-yl)pyridazin-3(2H)-one]",Herbicidal effect on B: Japanese bulrush (grade 0-5),Japanese bulrush; 320 g/ha applied herbicide,4 (Herbicidal rate of 70% or more and less than 90%)
same,"herbicidal effect grade, I: wild oat",wild oat; 320 g/ha,3 (Herbicidal rate of 40% or more and less than 70%)
same,"herbicidal effect rating, M: velvetleaf",velvetleaf; [10],5 (Herbicidal rate of 90% or more (almost completely withered))
same,"herbicidal effect rating, G: green foxtail",green foxtail; [10],4 (Herbicidal rate of 70% or more and less than 90%)
same,"herbicidal effect rating, A: late watergrass",late watergrass; AAH 320 g/ha,1 (Herbicidal rate of 5% or more and less than 20%)
same,"herbicidal effect rating, N: redroot pigweed",redroot pigweed; [10],3 (Herbicidal rate of 40% or more and less than 70%)
same,"herbicidal effect rating, H: barnyard grass",barnyard grass [1]; [10],5 (Herbicidal rate of 90% or more (almost completely withered))
same,"herbicidal effect grade, L: windgrass",windgrass; 320 g/ha,0 (Herbicidal rate of 5% or less (almost no effect))
same,"herbicidal effect on D (Chinese sprangletop), rating 0-5",Chinese sprangletop; 320 g/ha,4 (Herbicidal rate of 70% or more and less than 90%)
same,"herbicidal effect grade, J: blackgrass",blackgrass [2]; 320 g/ha,0 (Herbicidal rate of 5% or less (almost no effect))
same,"herbicidal effect grade, O: lambsquarters",lambsquarters [3]; 320 g/ha,5 (Herbicidal rate of 90% or more (almost completely withered))
same,"herbicidal effect rating, J: blackgrass",blackgrass [4]; [10],0 (Herbicidal rate of 5% or less (almost no effect))
same,"herbicidal effect rating, P: chickweed",chickweed; [10],4 (Herbicidal rate of 70% or more and less than 90%)
same,"herbicidal effect on H (barnyard grass), rating 0-5",barnyard grass [5]; 320 g/ha,5 (Herbicidal rate of 90% or more (almost completely withered))
same,"herbicidal effect rating, O: lambsquarters",lambsquarters [6]; [10],5 (Herbicidal rate of 90% or more (almost completely withered))
same,"herbicidal effect rating, F: southern crabgrass",southern crabgrass; [10],4 (Herbicidal rate of 70% or more and less than 90%)
same,"herbicidal effect grade, K: Italian ryegrass",Italian ryegrass; 320 g/ha,5 (Herbicidal rate of 90% or more (almost completely withered))

# From patent publication US20230085307A1, “PYRIDAZINONE COMPOUND AND HERBICIDE” (NISSAN CHEMICAL CORPORATION, priority 2019, published 2023)
